The source of these data is paper PMC6009888, “Design, synthesis, and pharmacological evaluation of 2-amino-5-nitrothiazole derived semicarbazones as dual inhibitors of monoamine oxidase and cholinesterase: effect of the size of aryl binding site” (Journal of Enzyme Inhibition and Medicinal Chemistry, 2017).

Where “and” joins values, the source holds several entries; their conditions need not be identical. Equal values may be shown once. Read-outs that look alike come from different tables or passages of the source.

Data set [1] relates to MAO-A. On the set-up: method as in PMID 12553895, PMID 23325700, PMID 27135466. Conditions: Figure 1, lead semicarbazone inhibitors; ref [47–50]; cited from earlier work.
For data set [2], the system named is MAO-B. Also noted: method as in PMID 12553895, PMID 23325700, PMID 27135466. Conditions: Figure 1, lead semicarbazone inhibitors; ref [47–50]; cited from earlier work.
Another data set relates to AChE. On the set-up: method as in PMID 12553895, PMID 23325700, PMID 27135466. The following applies: Figure 1, lead semicarbazone inhibitors; ref [47–50]; cited from earlier work.
Data set [3] concerns the target T1, MAO-A (Rattus norvegicus, UniProt P21396).
T1 construct: employing crude rat brain mitochondrial suspension; from tissue; host or cells: brain mitochondria of adult Wistar rats
T1 sequence (P21396 1-526): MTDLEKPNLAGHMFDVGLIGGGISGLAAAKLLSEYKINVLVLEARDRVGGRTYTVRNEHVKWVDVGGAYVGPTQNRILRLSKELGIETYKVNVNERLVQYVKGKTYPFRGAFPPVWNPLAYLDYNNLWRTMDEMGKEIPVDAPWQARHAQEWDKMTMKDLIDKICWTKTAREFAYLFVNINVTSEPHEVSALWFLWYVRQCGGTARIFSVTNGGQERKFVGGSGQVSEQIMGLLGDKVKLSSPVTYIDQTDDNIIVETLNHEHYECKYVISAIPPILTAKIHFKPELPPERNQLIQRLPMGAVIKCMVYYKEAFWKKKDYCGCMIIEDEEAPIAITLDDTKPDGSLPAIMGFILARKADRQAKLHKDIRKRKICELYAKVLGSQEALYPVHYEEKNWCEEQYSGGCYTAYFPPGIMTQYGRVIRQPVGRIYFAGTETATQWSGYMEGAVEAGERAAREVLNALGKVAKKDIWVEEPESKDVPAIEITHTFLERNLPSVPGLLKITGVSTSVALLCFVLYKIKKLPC
The experiment in a line: In vitro MAO-A inhibition assay (rat brain mitochondria, serotonin substrate). Type of data set: biochemical. Conditions: rat brain mitochondria, serotonin substrate, mean ± SEM, triplicate; read-out: MAO-A In vitro IC50 (µM) ± SEM. The method, then:
(§1) Rat brain mitochondria were used as a source of MAO isoforms. All operations were carried out at 4 °C[50]. Male and female adult Wistar rats weighing 200–220 g were decapitated. All brains were rapidly removed and homogenised with a Potter–Elvehjem homogeniser in cold 0.32 M sucrose and 50 mM Tris-HCl, pH 8.2 (10:1, v/w). The homogenate was centrifuged twice at 1000 g for 5 min at 4 °C. The resulting supernatant was centrifuged at 20,000 g for 20 min. The mitochondrial pellet obtained was suspended in 100 mM sodium phosphate buffer, pH 7.4 (4:1, v/w), fractionated in plastic vials to 500 µl samples and stored at −80 °C. Before use, mitochondria were diluted with 100 mM sodium phosphate buffer to give a working solution of 0.80 mg of protein per millilitre.
(§2) The experiments were carried out under all the suitable laboratory conditions. […] An aliquot was made to contain mixture of 55 µl mitochondrial suspension (0.80 mg of protein/ml), 90 µl 50 mM Tris-HCl buffer, pH 8.2 and 30 µl solubilising solution (control or inhibitor solution at five different concentrations). The reaction was initiated by adding 25 µl of serotonin (4 mM, substrate for MAO-A) and 25 µl benzylamine (0.1 M, substrate for MAO-B) for the determination of MAO-A and MAO-B activity, respectively. The mixture was incubated at 37 °C for 30 min and the reaction was stopped by the addition of 50 µl of 1 N HCl. The absorbance associated with the production of 5-hydroxyindolacetic acid was measured at 280 nm for the estimation of MAO-A while for MAO-B estimation, the absorbance was measured at 250 nm due to the formation of benzaldehyde. All the assays were performed in triplicate. Control experiments were carried out without inhibitor and blanks were run without mitochondrial suspension.
(§3) Data are expressed as mean ± standard error mean (SEM) of experiments performed in triplicate.
(§4) 0, 15, 30 and 60 min at 37 °C in Tris-HCl buffer (50 mM, pH 8.2). […] The reactions were further incubated at 37 °C for a further 15 min and the residual enzyme activities were measured and the bar graphs were constructed. All measurements were carried out in triplicate and are expressed as mean ± SEM.

For data set [4], the target named is T2, MAO-B (Rattus norvegicus, UniProt P19643).
T2 construct: employing crude rat brain mitochondrial suspension; from tissue; host or cells: brain mitochondria of adult Wistar rats
T2 sequence (P19643 1-520): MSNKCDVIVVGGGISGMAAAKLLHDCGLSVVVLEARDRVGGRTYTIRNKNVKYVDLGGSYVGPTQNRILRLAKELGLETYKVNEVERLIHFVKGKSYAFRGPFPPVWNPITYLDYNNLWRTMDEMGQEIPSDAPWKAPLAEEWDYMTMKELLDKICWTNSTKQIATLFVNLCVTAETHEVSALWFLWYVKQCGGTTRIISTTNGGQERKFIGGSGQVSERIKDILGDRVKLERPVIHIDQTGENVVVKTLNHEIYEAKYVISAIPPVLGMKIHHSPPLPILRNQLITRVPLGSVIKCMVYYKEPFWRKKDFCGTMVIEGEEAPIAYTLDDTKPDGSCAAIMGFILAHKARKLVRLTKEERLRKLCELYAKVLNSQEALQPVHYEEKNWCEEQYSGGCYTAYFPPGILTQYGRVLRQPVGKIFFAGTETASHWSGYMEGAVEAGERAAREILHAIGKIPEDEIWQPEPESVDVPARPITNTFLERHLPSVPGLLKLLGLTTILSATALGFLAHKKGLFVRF
The experiment in a line: biochemical. Conditions: for SI (selectivity index for MAO-B): ratio of experimental IC50(MAO-A)/IC50(MAO-B). The method, then: as §1, §2, §3, §4

A further data set deals with T3, rat brain AChE (Rattus norvegicus, UniProt P37136).
T3 construct: the resulting clear supernatants obtained were used as enzyme sources; from tissue; host or cells: rat brain cortex homogenate, 10,000 g supernatant
T3 sequence (P37136 32-614): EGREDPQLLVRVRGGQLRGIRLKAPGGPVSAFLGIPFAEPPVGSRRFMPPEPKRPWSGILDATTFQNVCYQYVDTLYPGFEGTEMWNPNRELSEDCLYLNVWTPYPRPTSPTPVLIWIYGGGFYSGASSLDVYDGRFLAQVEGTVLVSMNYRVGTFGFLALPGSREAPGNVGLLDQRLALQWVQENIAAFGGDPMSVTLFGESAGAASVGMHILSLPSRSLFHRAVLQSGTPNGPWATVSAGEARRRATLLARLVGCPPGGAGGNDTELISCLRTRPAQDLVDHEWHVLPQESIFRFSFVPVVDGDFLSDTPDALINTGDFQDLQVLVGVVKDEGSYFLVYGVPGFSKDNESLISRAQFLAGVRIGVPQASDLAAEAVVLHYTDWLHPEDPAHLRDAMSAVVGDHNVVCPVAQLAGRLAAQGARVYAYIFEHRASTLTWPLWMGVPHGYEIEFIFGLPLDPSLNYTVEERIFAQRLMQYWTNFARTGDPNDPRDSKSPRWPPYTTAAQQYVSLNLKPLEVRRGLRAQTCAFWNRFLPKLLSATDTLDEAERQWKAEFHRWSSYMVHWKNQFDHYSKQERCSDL
In words: biochemical. Type of data set: biochemical. Conditions: for IC50: rat brain AChE, ACTI substrate, mean ± SEM, triplicate, read-out: AChE In vitro IC50 (µM) ± SEM. The method, then: Rat brain was used as a source of AChE enzyme. Rats were separately decapitated, the brain cortices quickly removed, weighed and homogenised in cold 10 mM Tris-HCl buffer, pH 7.2, containing 160 mM sucrose. The homogenates were centrifuged at 10,000 g for 10 min at 4 °C, and the resulting clear supernatants obtained were used as enzyme sources that were divided into aliquots and stored at −20 °C.
(§5) About 30 µl of enzyme sample (AChE) was added to 60 µl of 20 mM sodium phosphate buffer (pH 7.4) and were incubated in the presence of 30 µl of 10 mM DTNB solution with different concentrations of the test compounds. The enzyme reaction was initiated by the addition of 30 µl of 0.8 mM ACTI. The mixtures were incubated for 15 min at 25 °C. […] Control experiments were carried out without inhibitor, and blanks were run without AChE enzyme. All the assays were performed in triplicate. IC50 values were determined using the GraphPad Prism 5.0 (San Diego, CA) and the results were expressed as mean ± SEM.
(§6) 0, 15, 30 and 60 min at 25 °C in sodium phosphate buffer (20 mM, pH 7.4) and DTNB solution (10 mM). […] The reaction was further incubated at 25 °C for a further 15 min and the residual enzyme activities were measured and the bar graphs were constructed. All measurements were carried out in triplicate and are expressed as mean ± SEM.

Another data set deals with T4, equine serum BuChE (Equus caballus, UniProt P81908).
T4 construct: equine serum BuChE was used as enzyme; purchased Sigma-Aldrich; host or cells: equine serum
T4 sequence (P81908 whole entry): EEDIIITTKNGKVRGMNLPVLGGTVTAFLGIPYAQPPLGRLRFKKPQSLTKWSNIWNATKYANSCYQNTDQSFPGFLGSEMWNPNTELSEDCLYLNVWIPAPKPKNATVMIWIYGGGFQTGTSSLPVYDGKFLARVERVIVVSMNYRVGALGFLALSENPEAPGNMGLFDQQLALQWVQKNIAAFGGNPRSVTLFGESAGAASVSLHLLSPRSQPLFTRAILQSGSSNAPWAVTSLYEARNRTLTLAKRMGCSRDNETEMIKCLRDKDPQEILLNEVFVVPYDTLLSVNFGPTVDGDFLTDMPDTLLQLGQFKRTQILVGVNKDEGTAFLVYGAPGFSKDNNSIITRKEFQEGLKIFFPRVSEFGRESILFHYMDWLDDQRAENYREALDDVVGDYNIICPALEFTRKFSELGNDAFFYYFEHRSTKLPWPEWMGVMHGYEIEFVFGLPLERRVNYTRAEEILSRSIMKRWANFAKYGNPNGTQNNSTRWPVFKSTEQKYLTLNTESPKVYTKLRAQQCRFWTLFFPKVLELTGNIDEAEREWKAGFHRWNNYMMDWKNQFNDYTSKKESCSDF
The experiment in a line: In vitro BuChE inhibition assay (Ellman's method, equine serum BuChE). Type of data set: biochemical. Conditions: for IC50: equine serum BuChE, BuTI substrate, mean ± SEM, read-out: BuChE In vitro IC50 (µM) ± SEM. The method, then: as §5
The BuChE activity was assayed as per the procedure followed for AChE activity except that equine serum BuChE was used as enzyme and butyrylthiocholine iodide (BuTI) was used as substrate.
as §6
In general terms: DTNB colorimetry detects thiols as they appear.

The test system of the next data set is mice. In words: Neurotoxicity screening (rotarod test). The following applies: 30 mg/kg i.p. Type of data set: in vivo. How it is done:
The neurotoxicity screening was undertaken according to the method followed by the National Institute of Health, using their reported procedures[55]^,[56]. Male albino mice (CF-1 strain or Swiss, 18–25 g) were used as experimental animals. The animals were housed in metabolic cages, and allowed free access to food and water. The test compounds were suspended in 0.5% methylcellulose/water mixture or in polyethylene glycol (PEG 200).
Minimal motor impairment was measured in mice by the rotarod test. The mice were trained to stay on an accelerating rotarod that rotates at six revolutions per minute. The rod diameter was 3.2 cm. Trained animals were given i.p. injection of the selected inhibitors at a dose of 30 mg/kg. Neurotoxicity was indicated by the inability of the animal to maintain equilibrium on the rod for at least 1 min in each of the three trials.
(The rotarod test checks motor coordination on a turning rod.)

The next data set in a line: physchem. The following applies: octanol/water.
Data set [5] deals with T1, MAO-A. The following applies: reference inhibitors; ref [50]; read-out: MAO-A In vitro IC50 (µM) ± SEM; cited from earlier work.
The target of data set [6] is T2, MAO-B. On the set-up: method as in PMID 27135466. Conditions: reference inhibitors; ref [50]; read-out: MAO-B In vitro IC50 (µM) ± SEM; cited from earlier work.

A word on the IC50: it is the concentration at which inhibition is half-maximal. Consider `O=C(N/N=C(\c1ccccc1)c1ccc(Cl)cc1)Nc1nc2ccc([N+](=O)[O-])cc2s1` [(i)], for which the IC50 was 0.184 ± 0.001 µM in the data set with MAO-A [1] and 0.004 ± 0.001 µM with MAO-B [2].
Regarding `O=C(N/N=C/c1c(Cl)cccc1Cl)Nc1ccc2c(c1)OCO2` [(ii)], the results for the IC50 with MAO-A [1], with MAO-B [2] and in the data set on AChE were 4.52 ± 0.032 µM, 0.059 ± 0.002 µM and 0.0087 ± 0.0002 µM, respectively.
Regarding `O=C(NN=C(c1ccccc1)c1ccccc1)Nc1ccncc1` [(iii)], the IC50 in the data set with AChE is 0.052 ± 0.01 µM.
For the compound `CNC(=O)N(CCO)/N=C/c1ccc(OCc2ccccc2)cc1` [(iv)], the IC50 in the data set with MAO-A [1] was 90 µM; with MAO-B [2], 2.2 µM.
Consider `O=C(N/N=C1/C(=O)Nc2ccccc21)Nc1nc2ccc([N+](=O)[O-])cc2s1` [(v)], for which the figures for the IC50 with MAO-A [1] and in the data set with MAO-B [2] were 5.98 ± 0.534 µM and 2.15 ± 0.095 µM, respectively.
In general, logP refers to the decadic logarithm of the partition coefficient of the neutral form, usually between octanol and water. A higher logP goes with a more lipophilic compound. Turning to `O=C(NN=C(c1ccccc1)c1ccccc1)Nc1ncc([N+](=O)[O-])s1` [Compound 16, 1-(Diphenylmethylene)-4-(5-nitrothiazol-2-yl)semicarbazide], the IC50 at MAO-A [3] was < 100 µM and 89.3 µM; against MAO-B [4], 28.3 ± 0.45 µM; at rat brain AChE, 4.86 ± 0.81 µM; on equine serum BuChE it was 1.76 ± 0.035 µM. Moreover, the “SI (selectivity index for MAO-B)” value at MAO-B [4] was determined as 3.15. Further, on rat brain AChE (diaryl analogues), the “AChE: fold less active relative to compound 19” value is reported as ~3.35 fold. In addition, the “BuChE: fold less active relative to compound 17” value on equine serum BuChE (diaryl analogues) is reported as ~73 fold. Moreover, the “Neurotoxicity (animals that exhibit toxicity / animals tested)” value with mice (0.5 h), in the data set on mice (1 h), in the data set on mice (2 h) and in the data set with mice (4 h) was 0/4 throughout. The same compound registered a logP in “physchem” of 3.4.
As to `O=C(NN=C(c1ccccc1)c1ccc(Cl)cc1)Nc1ncc([N+](=O)[O-])s1` [Compound 17, 1-((4-Chlorophenyl)(phenyl)methylene)-4-(5-nitrothiazol-2-yl)semicarbazide], the IC50 at MAO-A [3] came to 4872 ± 5.81 µM; against MAO-B [4], 28.52 ± 0.079 µM; on rat brain AChE, 11.5 ± 0.35 µM; on equine serum BuChE, 0.024 ± 0.002 µM. Also, the “SI (selectivity index for MAO-B)” value at MAO-B [4] worked out at 170.83. Moreover, on equine serum BuChE (Lineweaver–Burk plots, BuTI), the “Mode of BuChE inhibition” value is listed as “mixed-type”. Besides, the “Reversibility of BuChE inhibition” value on equine serum BuChE (time-dependent inhibition, pre-incubation 0, 15, 30, 60 min) is on record as “reversible”. Further, in “physchem”, the logP came to 3.6.
In the case of `COc1ccc2c(c1)[nH]c1c(C)nccc12` [HRM, Harmine], the IC50 was 3 µM at MAO-A [5] and 7000 µM on MAO-B [6].
